The values below come from PubChem BioAssay (NCI).

Test systems include SK-MEL-28 melanoma; COLO 205 colon; NCI-H460 lung; M14 melanoma; SNB-19 CNS; SK-MEL-5 melanoma; SF-539 CNS; CCRF-CEM leukemia; EKVX NSCLC; SK-MEL-2 melanoma.
Test in all cases: NCI-60 cell line screen, 48 h

Values joined by “and” are separate entries in the source; they are usually repeats but may differ in a detail not shown here. Equal values may be shown once.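 Dose response: 5 concentrations. Exposure: 48 h. Format: 96-well plates. Endpoint: linear interpolation; highest concentration if not reached. GI50 marks 50% less growth. The concentration for full growth arrest is given as TGI.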 Bounds are passed on as bounds.

As to `O=C(Nc1cccc([N+](=O)[O-])c1)C(=O)C(C(=O)c1ccccc1F)C1OC(=O)C2C=CC=CC21` (stereo not drawn), the TGI in the assay on SK-MEL-28 melanoma, in the assay on COLO 205 colon, in the assay with NCI-H460 lung, in the assay on M14 melanoma, with SNB-19 CNS and with SK-MEL-5 melanoma was greater than 100 µM in each case. The TGI in the assay on SF-539 CNS was 67.5 µM; in the assay with CCRF-CEM leukemia, greater than 100 µM; in the assay on EKVX NSCLC it was greater than 100 µM; in the assay with SK-MEL-2 melanoma it was greater than 100 µM.

For `C/C=C1/CN2CCC34c5ccccc5N(C)C23C2CC1C4(C(=O)OC)C(O)O2` (stereo not drawn), the TGI in the assay on SK-MEL-28 melanoma, in the assay on COLO 205 colon, in the assay on NCI-H460 lung, with M14 melanoma, with SNB-19 CNS and in the assay on SK-MEL-5 melanoma was greater than 100 µM in each case. For the same compound, the TGI in the assay on SF-539 CNS, in the assay with CCRF-CEM leukemia, with EKVX NSCLC and in the assay with SK-MEL-2 melanoma was greater than 100 µM in each case.

In the case of `NC(=O)Nc1ccc(C(=O)NCCCNC(=O)c2ccc(NC(N)=O)cc2)cc1`, the TGI in the assay with SK-MEL-28 melanoma, in the assay on COLO 205 colon, in the assay on NCI-H460 lung, in the assay on M14 melanoma, in the assay on SNB-19 CNS and in the assay with SK-MEL-5 melanoma was greater than 100 µM throughout. Also, the TGI in the assay with SF-539 CNS, in the assay on CCRF-CEM leukemia, with EKVX NSCLC and in the assay on SK-MEL-2 melanoma was greater than 100 µM in each case.

As for `Cc1c(NC(=O)c2cc([N+](=O)[O-])cc([N+](=O)[O-])c2)c(=O)n(-c2ccccc2)n1C`, the TGI in the assay on SK-MEL-28 melanoma is greater than 100 µM; in the assay on COLO 205 colon it was 52.2 µM; with NCI-H460 lung, greater than 100 µM; with M14 melanoma it was greater than 100 µM; in the assay on SNB-19 CNS, greater than 100 µM; in the assay with SK-MEL-5 melanoma it was greater than 100 µM. In addition, the TGI in the assay with SF-539 CNS, with CCRF-CEM leukemia and in the assay with SK-MEL-2 melanoma was greater than 100 µM in each case.

As for `O=C(Nc1sccc1S(=O)(=O)c1ccc(Cl)cc1)c1ccccc1`, the TGI with SK-MEL-28 melanoma, in the assay with COLO 205 colon, with NCI-H460 lung, with M14 melanoma, with SNB-19 CNS and in the assay on SK-MEL-5 melanoma was greater than 100 µM each time. In addition, the TGI in the assay on SF-539 CNS, with CCRF-CEM leukemia, in the assay on EKVX NSCLC and with SK-MEL-2 melanoma was greater than 100 µM each time.

For `c1ccc(CCN2CCOCC2)nc1`, the TGI with SK-MEL-28 melanoma, in the assay with COLO 205 colon, in the assay on NCI-H460 lung, in the assay on M14 melanoma, with SNB-19 CNS and in the assay with SK-MEL-5 melanoma was greater than 100 µM in each case. Moreover, the TGI in the assay on CCRF-CEM leukemia, with EKVX NSCLC and in the assay on SK-MEL-2 melanoma was greater than 100 µM each time.

Turning to `Nc1cccc2c1C1=NNC(=O)CC1C2` (stereo not drawn), the TGI with SK-MEL-28 melanoma, with COLO 205 colon, in the assay with NCI-H460 lung, in the assay on SNB-19 CNS, in the assay on SK-MEL-5 melanoma and with SF-539 CNS was greater than 100 µM each time. Also, the TGI in the assay on CCRF-CEM leukemia, with EKVX NSCLC and in the assay with SK-MEL-2 melanoma was greater than 100 µM each time.

Consider `O=C1C(c2c(O)[nH]c3ccccc23)=Nc2ccc(Br)cc21`, for which the TGI was greater than 100 µM in the assay on SK-MEL-28 melanoma; greater than 100 µM in the assay on COLO 205 colon; greater than 100 µM in the assay with NCI-H460 lung; greater than 100 µM in the assay with M14 melanoma; 76.2 µM in the assay with SNB-19 CNS; greater than 100 µM with SK-MEL-5 melanoma. Also, the TGI in the assay with CCRF-CEM leukemia is greater than 100 µM; with EKVX NSCLC, 61.1 µM; with SK-MEL-2 melanoma, 93.9 µM.

On to `CC(=O)N1CC(=O)NC1=S`, for which the TGI in the assay with SK-MEL-28 melanoma, in the assay with COLO 205 colon, with M14 melanoma, with SNB-19 CNS, in the assay with SK-MEL-5 melanoma and in the assay on SF-539 CNS was greater than 100 µM throughout. Moreover, the TGI with CCRF-CEM leukemia, with EKVX NSCLC and with SK-MEL-2 melanoma was greater than 100 µM throughout.

`Cc1ccc([N+](=O)[O-])cc1S(=O)(=O)Nc1ccc(C2=NN(C(=O)c3ccccc3)C(c3cccs3)C2)cc1` (stereo not drawn): the TGI with SK-MEL-28 melanoma is greater than 100 µM; in the assay on COLO 205 colon, 32.8 µM; with M14 melanoma it was greater than 100 µM; with SNB-19 CNS, greater than 100 µM; with SK-MEL-5 melanoma, 32.7 µM; in the assay with SF-539 CNS, 63.9 µM. The TGI in the assay on CCRF-CEM leukemia was greater than 100 µM; in the assay with EKVX NSCLC, 67.7 µM; in the assay on SK-MEL-2 melanoma it was 39.5 µM.

Turning to `COc1c(O)c(O)c2c(c1O)C(=O)c1cc(C)cc(O)c1C2=O`, the TGI is greater than 100 µM in the assay on SK-MEL-28 melanoma; 93.2 µM in the assay with COLO 205 colon; greater than 78 µM in the assay on NCI-H460 lung; greater than 100 µM in the assay on M14 melanoma; greater than 100 µM with SNB-19 CNS; greater than 100 µM in the assay on SK-MEL-5 melanoma. The TGI in the assay on SF-539 CNS, in the assay on CCRF-CEM leukemia, in the assay with EKVX NSCLC and with SK-MEL-2 melanoma was greater than 100 µM in each case.

As to `N#CCCOCN(CO)c1nc(N(CO)COCCC#N)nc(N(CO)COCCC#N)n1`, the TGI in the assay with SK-MEL-28 melanoma is 38.8 µM; with COLO 205 colon, 32.3 µM; with NCI-H460 lung it was 81.3 µM; in the assay with M14 melanoma it was 45.1 µM; in the assay on SNB-19 CNS, greater than 100 µM; in the assay on SF-539 CNS it was 8.63 µM. The TGI in the assay with CCRF-CEM leukemia is 58 µM; in the assay with EKVX NSCLC, 93.7 µM; in the assay with SK-MEL-2 melanoma, 38.6 µM.

`CCOC(=O)C(=O)Nc1c(CC)cccc1C(C)CC` (stereo not drawn): the TGI in the assay on SK-MEL-28 melanoma, in the assay with COLO 205 colon, with NCI-H460 lung, in the assay with M14 melanoma, in the assay with SNB-19 CNS and with SK-MEL-5 melanoma was greater than 100 µM each time. The TGI in the assay with SF-539 CNS, in the assay with CCRF-CEM leukemia, with EKVX NSCLC and in the assay with SK-MEL-2 melanoma was greater than 100 µM throughout.

Turning to `Cc1nc2c(O)cc3c4c(n(Cc5ccccc5)c3c2nc1C)C(=O)CCC4`, the TGI in the assay on SK-MEL-28 melanoma was 76.2 µM; with COLO 205 colon, greater than 100 µM; in the assay with NCI-H460 lung it was greater than 100 µM; in the assay on M14 melanoma it was greater than 100 µM; in the assay with SNB-19 CNS it was greater than 100 µM; in the assay on SK-MEL-5 melanoma, greater than 100 µM. Also, the TGI with SF-539 CNS was 48.1 µM; in the assay on CCRF-CEM leukemia, greater than 100 µM; in the assay on EKVX NSCLC it was greater than 100 µM; in the assay on SK-MEL-2 melanoma, 50.1 µM.

With `COc1ccccc1/C=C/c1c(N)ncnc1Nc1cccc(Cl)c1`, the TGI with SK-MEL-28 melanoma worked out at 36.4 µM; in the assay with NCI-H460 lung it was 57.1 µM; in the assay on M14 melanoma, 51.8 µM; in the assay with SNB-19 CNS, 47.1 µM; in the assay with SK-MEL-5 melanoma it was 43.4 µM; with SF-539 CNS, 35.6 µM. The TGI in the assay with CCRF-CEM leukemia is 1.12 µM; in the assay on EKVX NSCLC, greater than 100 µM; with SK-MEL-2 melanoma, 36.5 µM.

`Cc1ccc2ccc3ccc(C)nc3c2n1`: the TGI in the assay on SK-MEL-28 melanoma, with COLO 205 colon, in the assay on NCI-H460 lung, in the assay on M14 melanoma, in the assay on SNB-19 CNS and in the assay on SK-MEL-5 melanoma was greater than 100 µM in each case. Moreover, the TGI in the assay on SF-539 CNS, in the assay on CCRF-CEM leukemia, in the assay with EKVX NSCLC and in the assay with SK-MEL-2 melanoma was greater than 100 µM in each case.

For the compound `C=Cc1cc(OC)c2c(c1)c(=O)oc1c2cc(OC)c2c(O)ccc(C3OC(C)C(O)C(C)(O)C3O)c21` (stereo not drawn), the TGI with COLO 205 colon is 0.409 µM; with NCI-H460 lung it was 0.00652 µM and 0.0584 µM; in the assay with M14 melanoma it was 0.00162 µM; in the assay on SNB-19 CNS, 0.733 µM. Moreover, the GI50 in the assay with NCI-H460 lung is 0.000484 µM; with SNB-19 CNS it was 0.00151 µM; with SF-539 CNS it was 0.000153 µM; in the assay on CCRF-CEM leukemia, 0.0129 nM; with EKVX NSCLC it was 0.000589 µM; with SK-MEL-2 melanoma, 0.00134 µM.

Take `O=C1C(=c2cc3c(c4ccccc24)=NC24CCCCC2C(c2ccccc2)C=C(c2ccccc2)N34)C(=O)c2ccccc21` (stereo not drawn): the TGI with SK-MEL-28 melanoma, in the assay on COLO 205 colon, with M14 melanoma, in the assay on SNB-19 CNS, in the assay with SK-MEL-5 melanoma and in the assay on SF-539 CNS was greater than 100 µM each time. The TGI in the assay on CCRF-CEM leukemia, with EKVX NSCLC and with SK-MEL-2 melanoma was greater than 100 µM throughout.

In the case of `C[C@H](N[C@H]1CCC[C@]1(O)C#Cc1ccc2c(c1)OCO2)c1ccccc1`, the TGI in the assay with SK-MEL-28 melanoma, in the assay on COLO 205 colon, in the assay on NCI-H460 lung, in the assay with M14 melanoma, with SNB-19 CNS and in the assay on SK-MEL-5 melanoma was greater than 25 µM in each case. Also, the TGI in the assay on CCRF-CEM leukemia, in the assay on EKVX NSCLC and with SK-MEL-2 melanoma was greater than 25 µM in each case.

As to `COc1cc2c(cc1OC)C1Cc3cc(OC)c(OC)cc3C(C2)O1`, the TGI in the assay with SK-MEL-28 melanoma, in the assay on COLO 205 colon, in the assay with NCI-H460 lung, with M14 melanoma, with SNB-19 CNS and in the assay on SF-539 CNS was greater than 100 µM throughout. Besides, the TGI in the assay on CCRF-CEM leukemia, with EKVX NSCLC and in the assay with SK-MEL-2 melanoma was greater than 100 µM in each case.

For `CNS(=O)(=O)c1ccc2[nH]c(O)c(C3=Nc4ccccc4C3=O)c2c1`, the TGI in the assay on SK-MEL-28 melanoma, in the assay with COLO 205 colon, in the assay on NCI-H460 lung, in the assay on M14 melanoma, in the assay on SNB-19 CNS and in the assay on SK-MEL-5 melanoma was greater than 100 µM each time. The TGI in the assay on CCRF-CEM leukemia, in the assay on EKVX NSCLC and with SK-MEL-2 melanoma was greater than 100 µM each time.
